From article PMC8761492 (Life Science Alliance, 2022)
pIC50: −log10 of the molar value. Starred links: 1 amine or outer side, 2 acyl side, 3 side chain; linkers in the order of their positions; H or OH if unused. Positions of bridges follow the written chain, without caps; N, C: chain ends. Non-standard residues stand in square brackets, D forms with d. Residues, ends and D or L forms follow the SMILES beside them. *: point of attachment. X1 = CC[C@H](C)[C@@H](N[*:1])[C@@H](O)CC(=O)O[C@H](C(=O)[C@H](C)C(=O)[*:2])C(C)C; NMeY = CN[C@@H](Cc1ccc(O)cc1)C(=O)O; dNMeL = CN[C@H](CC(C)C)C(=O)O; Pyruvoyl = CC(=O)C(=O)*

Tests used:
Experiment in all cases: microbe, parasite or virus in culture
Assay type in all cases: cell-based
Settings in all cases: Severe acute respiratory syndrome coronavirus 2, HeLa-ACE2, 48 h
SARS-CoV-2 α (B.1.1.7) = tested on: SARS-CoV-2 α (B.1.1.7)
SARS-CoV-2 μ (B.1.621) = tested on: SARS-CoV-2 μ (B.1.621)
SARS-CoV-2 β (B.1.351) = tested on: SARS-CoV-2 β (B.1.351)
SARS-CoV-2 δ (B.1.617.2) = tested on: SARS-CoV-2 δ (B.1.617.2)
SARS-CoV-2 ο (B.1.1.529) = tested on: SARS-CoV-2 ο (B.1.1.529)

**Q.** What does the source list for `CC[C@H](C)[C@H]1NC(=O)[C@@H](NC(=O)[C@@H](CC(C)C)N(C)C(=O)[C@@H]2CCCN2C(=O)C(C)=O)[C@@H](C)OC(=O)[C@H](Cc2ccc(OC)cc2)N(C)C(=O)[C@@H]2CCCN2C(=O)[C@H](CC(C)C)NC(=O)[C@@H](C)C(=O)[C@H](C(C)C)OC(=O)C[C@@H]1O` [Plitidepsin] (Pyruvoyl-P[dNMeL]T[X1]LP[NMeY](Me); ester 3-C)?
**A.** pIC50 (SARS-CoV-2 α (B.1.1.7); read-out: Antiviral IC50): 10.28; IC90 (SARS-CoV-2 α (B.1.1.7); read-out: Antiviral IC90): 0.161 nM; pIC50 (SARS-CoV-2 μ (B.1.621); read-out: Antiviral IC50): 9.58; IC90 (SARS-CoV-2 μ (B.1.621); read-out: Antiviral IC90): 1.03 nM; pIC50 (SARS-CoV-2 β (B.1.351); read-out: Antiviral IC50): 10.11; IC90 (SARS-CoV-2 β (B.1.351); read-out: Antiviral IC90): 0.419 nM; pIC50 (SARS-CoV-2 δ (B.1.617.2); read-out: Antiviral IC50): 10.05; IC90 (SARS-CoV-2 δ (B.1.617.2); read-out: Antiviral IC90): 0.511 nM; pIC50 (SARS-CoV-2 ο (B.1.1.529); read-out: Antiviral IC50): 9.54; IC90 (SARS-CoV-2 ο (B.1.1.529); read-out: Antiviral IC90): 0.887 nM
